Reference: patent US4472582A, “3,5-Disubstituted-4'-(9-acridinylamino)-methane-sulfon-m-anisidide compounds having antitumor properties” (Development Finance Corporation of New Zealand, priority 1979, dated 1984)

tested on: L1210 leukemia (ip); assay: Antileukemic screen, L1210 tumour ip, drug ip qd 1-5; type: in vivo, mice (C3H/DBA2 F1 hybrids); settings: L1210-ip, qd 1-5; Table IV
Excerpt: In initial screening a standard drug administration schedule has been employed (ip, qd 1-5) and mice (C3 H/DBA2 F1 hybrids) bred in the laboratory, receive a standard tumor inoculum of 10^5 L1210 cells ip on day 0. After range finding experiments, an LD10 dose has then been derived employing doses separated by 0.05 log.dose units, an acceptable soluble drug formulation (B. F. Cain, R. N. Seelye and G. J. Atwell, J. Med. Chem., 17, 922-930 (1974)) and groups of six tumored mice at each dose level. Deaths occuring before day 8 have been taken as resulting from drug toxicity. From the linear regression relating percent probit-mortality and the logarithms of the corresponding doses, an LD10 value has been derived. Profiles of antileukemic activity have been obtained employing doses separated by 0.09 log.dose intervals. Significant percentage increases in life span of leukemic animals, obtained at and below the LD10 dose, have been linearly correlated with the logarithms of the corresponding doses. The increase in life span (ILS) specified by the life extension-log.dose regression line at the measured LD10 provides a representative measure of antileukemic effectiveness at a standard host load in toxicity (W. A. Denny and B. F. Cain, J. Med. Chem., 21, 430-437 (1978)). For congener selection ILS has been employed as a measure of factor (1) above and LD10 for factor (2). Desirable drug pharmacokinetic properties (factor (3)) have been screened for by employing standard ip drug administration and implanting tumor more remotely; either subcutaneously (sc) or intracerabrally (ic) (B. F. Cain and G. J. Atwell Europ J. Cancer, 10, 539 549 (1974), B. F. Cain and G. J. Atwell, J. Med. Chem., 19 1409-1416 (1976)).
ILS and LD10=as defined above.
D40=the drug dose necessary to provide 40% ILS in standard L1210 assays.

In order of falling “ILS Observed” value:
1. COc1cc(NS(C)(=O)=O)ccc1Nc1c2ccc(C(N)=O)cc2nc2c(C)cccc12 [Compound C17]  150%
2. COc1cc(NS(C)(=O)=O)ccc1Nc1c2ccc(N)cc2nc2c(C)cccc12 [Compound C7]  125%
3. COc1cc(NS(C)(=O)=O)ccc1Nc1c2ccccc2nc2cc(C(F)(F)F)c(N)cc12 [Compound C2]  108%
4. COc1cc(NS(C)(=O)=O)ccc1Nc1c2ccc([N+](=O)[O-])cc2nc2c(C)cccc12 [Compound C5]  107%
5. COc1cc(NS(C)(=O)=O)ccc1Nc1c2ccc(C)cc2nc2c(C(N)=O)cccc12 [Compound C14]  100%
6. COc1cc(NS(C)(=O)=O)ccc1Nc1c2ccc([N+](=O)[O-])cc2nc2c(C(N)=O)cccc12 [Compound C16]  100%
7. COc1cc(NS(C)(=O)=O)ccc1Nc1c2ccc(C)cc2nc2c(C)cccc12 [Compound C13]  97%
8. COc1cc(NS(C)(=O)=O)ccc1Nc1c2ccc([N+](=O)[O-])cc2nc2c(C)c(C)ccc12 [Compound C30]  92%
9. COc1cc(NS(C)(=O)=O)ccc1Nc1c2ccc(C)cc2nc2cc([N+](=O)[O-])ccc12 [Compound C22]  91%
10. COc1cc(NS(C)(=O)=O)ccc1Nc1c2ccccc2nc2cc(Br)c(N)cc12 [Compound C1]  90%
11. COc1cc(NS(C)(=O)=O)ccc1Nc1c2ccc(Cl)cc2nc2c(C(N)=O)cccc12 [Compound C15]  90%
12. COc1cc(NS(C)(=O)=O)ccc1Nc1c2cccc(C)c2nc2c(C)cccc12 [Compound C24]  87%
13. COc1cc(NS(C)(=O)=O)ccc1Nc1c2ccc(I)cc2nc2c(C)cccc12 [Compound C8]  86%
14. COc1cc(NS(C)(=O)=O)ccc1Nc1c2cc(N)c(Br)cc2nc2c(C)cccc12 [Compound C26]  83%
15. COc1cc(NS(C)(=O)=O)ccc1Nc1c2ccc(Cl)cc2nc2c(OC)cccc12 [Compound C12]  82%
16. COc1cc(NS(C)(=O)=O)ccc1Nc1c2ccc(Br)cc2nc2cc(Br)ccc12 [Compound C21]  82%
17. COc1cc(NS(C)(=O)=O)ccc1Nc1c2ccccc2nc2c(C)c(C)ccc12 [Compound C4]  79%
18. COc1cc(NS(C)(=O)=O)ccc1Nc1c2ccc(N)cc2nc2c(C)c(C)ccc12 [Compound C31]  79%
19. COc1cc(NS(C)(=O)=O)ccc1Nc1c2cccc(C)c2nc2c(C)c(C)ccc12 [Compound C28]  76%
20. COc1cc(NS(C)(=O)=O)ccc1Nc1c2ccc(C(N)=O)cc2nc2c(OC)cccc12 [Compound C18]  70%
21. CNc1ccc2c(Nc3ccc(NS(C)(=O)=O)cc3OC)c3cccc(C)c3nc2c1 [Compound C10]  68%
22. COc1cc(NS(C)(=O)=O)ccc1Nc1c2ccc([N+](=O)[O-])cc2nc2c(OC)cccc12 [Compound C6]  66%
23. CNc1ccc2c(Nc3ccc(NS(C)(=O)=O)cc3OC)c3ccc(C)c(C)c3nc2c1 [Compound C32]  64%
24. COc1cc(NS(C)(=O)=O)ccc1Nc1c2ccc(I)cc2nc2c(OC)cccc12 [Compound C9]  63%
25. COc1cc(NS(C)(=O)=O)ccc1Nc1c2ccccc2nc2c(C)c(C)c(N)cc12 [Compound C25]  61%
26. COc1cc(NS(C)(=O)=O)ccc1Nc1c2ccc([N+](=O)[O-])cc2nc2cc([N+](=O)[O-])ccc12 [Compound C23]  58%
27. COc1cc(NS(C)(=O)=O)ccc1Nc1c2ccc(C)cc2nc2c(C)c(C)ccc12 [Compound C29]  58%
28. COc1cc(NS(C)(=O)=O)ccc1Nc1c2ccc(Cl)cc2nc2c(C)cccc12 [Compound C11]  57%
29. COc1cc(NS(C)(=O)=O)ccc1Nc1c2ccccc2nc2c(C)c([N+](=O)[O-])ccc12 [Compound C3]  54%
30. COc1cc(NS(C)(=O)=O)ccc1Nc1c2ccc(Cl)cc2nc2cc(Cl)ccc12 [Compound C19]  52%
31. COc1cc(NS(C)(=O)=O)ccc1Nc1c2cccc(C)c2nc2c(C)c([N+](=O)[O-])ccc12 [Compound C27]  28%
32. COc1cc(NS(C)(=O)=O)ccc1Nc1c2ccc(Cl)cc2nc2cc(C(F)(F)F)ccc12 [Compound C20]  5%

same assay, conditions: in words

In the case of `COc1cc(NS(C)(=O)=O)ccc1Nc1c2ccccc2nc2cc(C(F)(F)F)c(N)cc12` [Compound C2], the “Observed ILS compared with predicted ILS” value is reported as “observed ILS values greater than their predicted ILS values”.
`COc1cc(NS(C)(=O)=O)ccc1Nc1c2ccc([N+](=O)[O-])cc2nc2c(C)cccc12` [Compound C5] was tested, and the “Observed ILS compared with predicted ILS” value was “observed ILS values greater than their predicted ILS values”.
With `COc1cc(NS(C)(=O)=O)ccc1Nc1c2ccc(N)cc2nc2c(C)cccc12` [Compound C7] the “Observed ILS compared with predicted ILS” value was “observed ILS values greater than their predicted ILS values”.
`COc1cc(NS(C)(=O)=O)ccc1Nc1c2ccc([N+](=O)[O-])cc2nc2c(C(N)=O)cccc12` [Compound C16] was tested, and the “Observed ILS compared with predicted ILS” value was “observed ILS values greater than their predicted ILS values”.
In the case of `COc1cc(NS(C)(=O)=O)ccc1Nc1c2ccc(C(N)=O)cc2nc2c(C)cccc12` [Compound C17], the “Observed ILS compared with predicted ILS” value is reported as “observed ILS values greater than their predicted ILS values”.
`COc1cc(NS(C)(=O)=O)ccc1Nc1c2ccc(C)cc2nc2cc([N+](=O)[O-])ccc12` [Compound C22] was tested, and the “Observed ILS compared with predicted ILS” value was “observed ILS values greater than their predicted ILS values”.

same assay, conditions: monosubstituted m-AMSA; Table V

In order of falling “ILS Observed” value:
1. COc1cc(NS(C)(=O)=O)ccc1Nc1c2ccccc2nc2cc(C(N)=O)ccc12 [Compound M3]  150%
2. CNC(=O)c1cccc2c(Nc3ccc(NS(C)(=O)=O)cc3OC)c3ccccc3nc12 [Compound M14]  135%
3. COc1cc(NS(C)(=O)=O)ccc1Nc1c2ccccc2nc2cc(Br)ccc12 [Compound M6]  119%
4. COc1cc(NS(C)(=O)=O)ccc1Nc1c2ccccc2nc2c(C(N)=O)cccc12 [Compound M13]  112%
5. COc1cc(NS(C)(=O)=O)ccc1Nc1c2ccccc2nc2c(C)cccc12 [Compound M12]  111%
6. COc1cc(NS(C)(=O)=O)ccc1Nc1c2ccccc2nc2c(OC)cccc12 [Compound M16]  110%
7. COc1cc(NS(C)(=O)=O)ccc1Nc1c2ccccc2nc2ccc(N)cc12 [Compound M1]  106%
8. COc1cc(NS(C)(=O)=O)ccc1Nc1c2ccccc2nc2cc(I)ccc12 [Compound M7]  98%
9. COc1cc(NS(C)(=O)=O)ccc1Nc1c2ccccc2nc2c(C(=O)NCC(N)=O)cccc12 [Compound M15]  98%
10. CNc1ccc2c(Nc3ccc(NS(C)(=O)=O)cc3OC)c3ccccc3nc2c1 [Compound M10]  94%
11. CNC(=O)c1ccc2c(Nc3ccc(NS(C)(=O)=O)cc3OC)c3ccccc3nc2c1 [Compound M4]  92%
12. COc1cc(NS(C)(=O)=O)ccc1Nc1c2ccccc2nc2cc(C)ccc12 [Compound M2]  88%
13. COc1cc(NS(C)(=O)=O)ccc1Nc1c2ccccc2nc2cc([N+](=O)[O-])ccc12 [Compound M11]  84%
14. COc1cc(NS(C)(=O)=O)ccc1Nc1c2ccccc2nc2cc(N)ccc12 [Compound M9]  82%
15. COc1cc(NS(C)(=O)=O)ccc1Nc1c2ccccc2nc2cc(Cl)ccc12 [Compound M5]  72%
16. COc1cc(NS(C)(=O)=O)ccc1Nc1c2ccccc2nc2cc(C(F)(F)F)ccc12 [Compound M8]  63%
